Results published in publication PMC8097242, “Galectin-4 N-Terminal Domain: Binding Preferences Toward A and B Antigens With Different Peripheral Core Presentations” (Frontiers in Chemistry, 2021).

Assays:
Type in all cases: binding
[1] = biological target: T1, N-terminal CRD of hGalectin-4 (Gal-4N) (Homo sapiens, UniProt P56470); assay: Isothermal titration calorimetry (ITC); conditions: for Kd: PBS pH 7.4, single binding site model
T1 construct: N-terminal CRD of hGalectin-4 (amino acids 1–150, including an additional C-terminus His-Tag); His-Tag (C, cleaved yes); made in house; host or cells: E. coli BL21 (pET29b)
T1 sequence (P56470 1-150): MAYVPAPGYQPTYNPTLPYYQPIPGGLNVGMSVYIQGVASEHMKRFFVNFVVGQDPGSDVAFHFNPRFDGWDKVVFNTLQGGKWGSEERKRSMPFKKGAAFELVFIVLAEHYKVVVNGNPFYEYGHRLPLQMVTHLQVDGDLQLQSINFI
Method: Isothermal titration calorimetry experiments were performed using the MicroCal PEAQ-ITC calorimeter (Malvern Panalytical, Malvern, United Kingdom). Samples containing 100–200 μM of Gal-4N in PBS (50 mM sodium phosphate, pH 7.4, 300 mM NaCl) were titrated with stocks of 3–10 mM in PBS of glycans 4, 5, 7, 8, 9, and 11. During the automated experiment, small aliquots (2–3 μL) of the sugar stocks were added to the cell containing the lectin. Curve fitting to a single binding site model was performed with the MicroCal Origin 7 software.
Isothermal titratrion calorimetry (ITC). Isothermal Titration Calorimetry experiments were performed using MicroCal PEAQ-ITC calorimeter. Samples containing 100-200 µM of Gal-4N in PBS (50 mM sodium phosphate pH 7.4, 300 mM NaCl) were titrated with stocks of 3-10 mM in PBS of glycans A type 1, A type 2, A type 6, B type 1, B type 2 and B type 6. During the automated experiment, small aliquots (2-3 µL) of the sugar stocks were added to the cell containing the lectin. The association constants and the thermodynamic profile of the binding was calculated from the fitting of the titration data to a single binding site model.

[2] = biological target: T1, N-terminal CRD of hGalectin-4 (Gal-4N); assay: 1H Saturation Transfer Difference (STD) NMR epitope mapping
Method: ^1H-saturation transfer difference NMR spectra were acquired for mixtures of Gal-4N (50 μM) with a 50-fold excess of ligand. Protein aromatic irradiation afforded the best STD intensities and thus these are discussed henceforth. The STD NMR spectra were very similar among the different ligands with respect to both the observed glycan protons and their intensities. […] Severe proton overlapping precluded a full comparison among ligands, but key isolated ^1H NMR resonance signals permitted to highlight evident differences.
All the STD NMR experiments were performed using an 800 MHz Bruker spectrometer with a cryoprobe (Bruker, Billerica, MA, United States). The samples were prepared in the corresponding deuterated buffer. The temperature was 288 K for every experiment. An amount of 50 μM of the lectin with 50 equivalents of the ligand was employed for every experiment except for lactose, for which a 1:70 ratio was used. The STD spectra were acquired with 1,024 scans, 2 s of saturation time using a train of 50 ms Gaussian-shaped pulses, and 3 s of relaxation delay. The spin-lock filter applied to remove the signals of the lectin was set at 40 ms. The on-resonance frequency was set for the aromatic region at 6.58 ppm, while the off-resonance frequency was set at 100 ppm.
Supplementary Table S1. Relative STD-AF (Amplification factor) and STD percentage of each non overlapping proton of each ligand.

[3] = biological target: T1, N-terminal CRD of hGalectin-4 (Gal-4N); assay: 1H-15N HSQC NMR-based titrations (chemical shift perturbation) of 15N-labeled Gal-4N; conditions: HSQC NMR-based titration, 50 μM 15N-labeled lectin, 298 K; read-out: KD (μM) (NMR)
Method: The molecular recognition event was also analyzed from the perspective of the lectin. Thus, a chemical shift perturbation (CSP) analysis of the changes produced in the ^1H-^15N HSQC spectra recorded for ^15N-labeled Gal-4N upon addition of the different ligands was carried out. This analysis required the NH backbone NMR assignment of the lectin signals, following well-established triple resonance 3D NMR methods (see Materials and methods and Supplementary Information). The assignment protocol allowed assigning 80% of the NH backbone resonances. In addition to the ligands shown in Scheme 1, the corresponding non-fucosylated analogs and the H antigens (devoid of the terminal Gal/GalNAc moieties, see Supplementary Information), as well as lactose, were also employed. Thus, a full comparative analysis on the monosaccharide-specific effects on the lectin CSP was achieved.
The total volume for the NMR samples was 500/μl. The lectin was in phosphate-buffered saline (50 mM sodium phosphate, 150 mM NaCl, pH 7.4), either in D2O or 90:10 H2O:D2O depending on the NMR experiment. The pH was adjusted with the required amount of NaOH and HCl or NaOD and DCl.
experiments were acquired using an 800 MHz Bruker spectrometer with a cryoprobe (Bruker, Billerica, MA, United States). The samples were prepared using 50 μM of the ^15N-labeled lectin in the corresponding buffer in a 90:10 H2O:D2O ratio. The experiments were performed at 298 K. Six to nine points were recorded for each ligand and CSP and KD were calculated using CcpNmr Analysis 2.4.2.

[4] = 1H-residue NHAcGlcNAc (B type 1: first of two lines)
[5] = 1H-residue NHAcGlcNAc (B type 1: second of two lines)

| Compound | -TΔS (kcal mol^–1) (ITC) [1] | ΔG (kcal mol^–1) (ITC) [1] | ΔH (kcal mol^–1) (ITC) [1] | Kd [1] [µM] | STD% ([2]; 1H-residue H1 Fuc) [%] | STD-AF ([2]; 1H-residue H1 Fuc) | STD% ([2]; 1H-residue H1Galα) [%] | STD-AF ([2]; 1H-residue H1Galα) | STD% ([2]; 1H-residue H1Galβ) [%] | STD-AF ([2]; 1H-residue H1Galβ) | STD% ([2]; 1H-residue H1GlcNAc) [%] | STD-AF ([2]; 1H-residue H1GlcNAc) | STD% ([2]; 1H-residue H3GlcNAc) [%] | STD-AF ([2]; 1H-residue H3GlcNAc) | STD% ([2]; 1H-residue H4Galβ) [%] | STD-AF ([2]; 1H-residue H4Galβ) | STD% ([2]; 1H-residue H5Galβ) [%] | STD-AF ([2]; 1H-residue H5Galβ) | STD% ([2]; 1H-residue MetFuc) [%] | STD-AF ([2]; 1H-residue MetFuc) | other results |
| --- | --- | --- | --- | --- | --- | --- | --- | --- | --- | --- | --- | --- | --- | --- | --- | --- | --- | --- | --- | --- | --- |
| CC(=O)N[C@@H]1[C@@H](O[C@@H]2O[C@H](CO)[C@H](O)[C@H](O[C@H]3O[C@H](CO)[C@H](O)[C@H](O)[C@H]3O)[C@H]2O[C@@H]2O[C@@H](C)[C@@H](O)[C@@H](O)[C@@H]2O)[C@H](O)[C@@H](CO)O[C@H]1O [B type-1 (tetra)] | 2.3 | −5.4 | −7.7 | 109 | 0 | 0.0000 | 56 | 0.0053 | 70 | 0.0066 | 16 | 0.0015 | 38 | 0.0036 | 74 | 0.0070 | 100 | 0.0094 | 14 | 0.0013 | STD% ([2]; 1H-residue H2Galα): 35%; STD-AF ([2]; 1H-residue H2Galα): 0.0033; STD% ([2]; 1H-residue H2GlcNAc): 29%; STD-AF ([2]; 1H-residue H2GlcNAc): 0.0027; STD% ([2]; 1H-residue H4GlcNAc): 53%; STD-AF ([2]; 1H-residue H4GlcNAc): 0.0050; STD% ([2]; 1H-residue H5Galα): 23%; STD-AF ([2]; 1H-residue H5Galα): 0.0022; STD% [2, 4]: 141%; STD-AF [2, 4]: 0.0133; STD% [2, 5]: 59%; STD-AF [2, 5]: 0.0055; STD% ([2]; Average NHAc): 100%; STD-AF ([2]; Average NHAc): 0.0094; Kd [3]: 200 µM |
| CC(=O)NC1C(O)OC(CO)C(OC2OC(CO)C(O)C(OC3OC(CO)C(O)C(O)C3O)C2OC2OC(C)C(O)C(O)C2O)C1O (stereo not shown) [B type-2 (tetra)] | 3.8 | −5.5 | −9.3 | 88 | 16 | 0.0024 | 73 | 0.0108 | 59 | 0.0088 | 24 | 0.0035 | 36 | 0.0054 | 55 | 0.0081 | 100 | 0.0148 | 16 | 0.0023 | STD% ([2]; 1H-residue H3Galβ): 36%; STD-AF ([2]; 1H-residue H3Galβ): 0.0054; STD% ([2]; 1H-residue H4Galα): 18%; STD-AF ([2]; 1H-residue H4Galα): 0.0027; STD-AF [2, 4]: 0.0035; Kd [3]: 190 µM |
